Test results taken from patent US20260144879A1, “ANTI-VIRAL AND HEPATIC-TARGETED DRUGS” (AI-BIOPHARMA, priority 2019, published 2026).

Assays:
[1] = system: HBV (genotype D, serotype ayw, Galibert's strain); experiment: Quantification of virion associated secreted HBV DNA in supernatant of HBV-infected differentiated HepaRG (dHepaRG) cells by qPCR, % of replication vs DMSO; type: cell-based, hepatitis B virus; settings: 1 μM compound, 7 days treatment, DMSO = 100%; for activity at 1 µM: Hepatitis B virus, HepaRG, 168 h, read-out: dHepaRG HBV % of replication at 1 μM compared to DMSO
Procedure: (§1) From Methods in Lucifora J. et al. (Direct antiviral properties of TLR ligands against HBV replication in immune-competent hepatocytes, Science Scientific Reports, 2018, 8:5390): • 1) HepaRG cells were cultured, as described previously by Gripon P. et al. (Infection of a human hepatoma cell line by hepatitis B virus. Proc Natl Acad Sci USA, 2002, 99, p 15655-15660) on pages 15655 and 15656, in Williams E medium supplemented with 10% fetal calf serum, 50 U penicillin/streptomycin (Gibco-Invitrogen) ml^−1, […] ml^−1 and 5×10^−7 M hydrocortisone hemisuccinate (Roche Diagnostics and Boehringer Mannheim, respectively). The cell cultures were maintained in a 5% CO2 atmosphere at 37° C. During the proliferation phase, culture medium was renewed every 2 days. For differentiation and infection, cells were maintained for 2 weeks in standard medium and then for at least 2 more weeks in medium supplemented with 1.8-2.0% DMSO (Sigma). • 2) Primary Human Hepatocytes (PHH) were freshly prepared from human liver resection as previously described by Lecluyse, E. L. & Alexandre, E. (Isolation and culture of primary hepatocytes from resected human liver tissue. Methods Mol Biol, 2010, 640, p 57-82, https://doi.org/10.1007/978-1-60761-688-7_3) on page 63 paragraph 3. “Methods” from section 3.1. through 3.6.2. page 77. All experimental procedures were conducted in conformity with French laws and regulations and were approved by the National Ethics Committee. • 3) Cell viability was measured by both neutral red and MTS (CellTiter 96 Aqueous One Solution cell proliferation assay; Promega) tests. • 4) HBV inoculum (genotype D, serotype ayw, Galibert's strain referred as NC_003977.2 at NCBI) was prepared from HepAD38 (see Ladner, S. K. et al., Inducible expression of human hepatitis B virus (HBV) in stably transfected hepatoblastoma cells: a novel system for screening potential inhibitors of HBV replication. Antimicrob Agents Chemother, 1997, 41, p 1715-1720) supernatants by polyethylene-glycol-MW-8000 (PEG8000, SIGMA) precipitation (8% final) as previously described by Luangsay, S. et al. (Early inhibition of hepatocyte innate responses by hepatitis B virus. J Hepatol, 2015, 63, p 1314-1322, https://doi.org/10.1016/j.jhep.2015.07.014).
(§2) Viral stocks with titer reaching at least 1×10^10 viral genome equivalent (vge)/mL were tested endotoxin free.
(§3) Differentiated HepaRG (dHepaRG) or PHH were infected by HBV at a multiplicity of infection of 100-200 vge/cell in culture medium containing 4% PEG 8000 (Sigma) for 16 h at 37° C. in 12- or six-well plates. At the end of the incubation period, cells were washed once with medium and then cultured in Williams E medium containing DMSO as indicated. In general infection was left for 7 days before any treatment was started, to allow replication reaching its maximum. • 5) Infected cell treatment with compounds of interest: • 5a: After 7 days of infection with the virus (day 0 to day 7), the dHepaRG cells were treated (3 treatments: day 7, day 10 and day 12) with a […] of the tested compound (diluted with sterile water from a 10 mM stock DMSO solution) or DMSO as reference negative control for 7 more days. • 5b: After 4 days of infection with the virus (day 0 to day 4), the PHH cells were treated (3 treatments: day 4, day 7 and day 9) with a […] of the tested compound (diluted with sterile water from a 10 mM stock DMSO solution) for 7 more days. • 6) Quantification of virion associated secreted HBV DNA in cell culture supernatant:
(§4) At the end of the experiment (7 days treatment) the supernatant of infected and treated cells (either dHepaRG or PHH or others) is collected. It is diluted 1/4 into sterile water (molecular biology quality) then treated for 30 minutes with RNAse (10 unit) and DNAse (10 unit) to remove non encapsidated material. […]

[2] = system: HBV (genotype D, serotype ayw, Galibert's strain); experiment: Quantification of virion associated secreted HBV DNA in supernatant of HBV-infected Primary Human Hepatocytes (PHH) by qPCR, % of replication vs DMSO; type: cell-based, hepatitis B virus; settings: 1 μM compound, 7 days treatment, DMSO = 100%; for activity at 1 µM: Hepatitis B virus, Hepatocyte, 168 h, (*) n = 1, read-out: PHH HBV % of replication at 1 μM compared to DMSO; for PHH HBV % of replication at 1 μM compared to DMSO: (*) n = 1
Procedure: as §1, §2, §3, §4

[3] = Cell viability by neutral red and MTS (CellTiter 96 Aqueous One Solution) tests, HepaRG cells; type: cell-based, human; settings: human, differentiated HepaRG (dHepaRG) cells, CellTiter-Glo, read-out: Cytotoxicity (CC50 in μM) in dHepaRG CellTiter-Glo
Procedure: (§5) From Methods in Lucifora J. et al. (Direct antiviral properties of TLR ligands against HBV replication in immune-competent hepatocytes, Science Scientific Reports, 2018, 8:5390): • 1) HepaRG cells were cultured, as described previously by Gripon P. et al. (Infection of a human hepatoma cell line by hepatitis B virus. Proc Natl Acad Sci USA, 2002, 99, p 15655-15660) on pages 15655 and 15656, in Williams E medium supplemented with 10% fetal calf serum, 50 U penicillin/streptomycin (Gibco-Invitrogen) ml^−1, […] ml^−1 and 5×10^−7 M hydrocortisone hemisuccinate (Roche Diagnostics and Boehringer Mannheim, respectively). The cell cultures were maintained in a 5% CO2 atmosphere at 37° C. During the proliferation phase, culture medium was renewed every 2 days. For differentiation and infection, cells were maintained for 2 weeks in standard medium and then for at least 2 more weeks in medium supplemented with 1.8-2.0% DMSO (Sigma). • 2) Primary Human Hepatocytes (PHH) were freshly prepared from human liver resection as previously described by Lecluyse, E. L. & Alexandre, E. (Isolation and culture of primary hepatocytes from resected human liver tissue. Methods Mol Biol, 2010, 640, p 57-82, https://doi.org/10.1007/978-1-60761-688-7_3) on page 63 paragraph 3. “Methods” from section 3.1. through 3.6.2. page 77. […] K. et al., Inducible expression of human hepatitis B virus (HBV) in stably transfected hepatoblastoma cells: a novel system for screening potential inhibitors of HBV replication. Antimicrob Agents Chemother, 1997, 41, p 1715-1720) supernatants by polyethylene-glycol-MW-8000 (PEG8000, SIGMA) precipitation (8% final) as previously described by Luangsay, S. et al. (Early inhibition of hepatocyte innate responses by hepatitis B virus. J Hepatol, 2015, 63, p 1314-1322, https://doi.org/10.1016/j.jhep.2015.07.014).

HepaRG cells = experiment: as above; type: cell-based, human; settings: dHepaRG cells, CellTiter-Glo; read-out: Cytotoxicity (CC50 in μM) in dHepaRG CellTiter-Glo
Procedure: as §5

SMILES | activity at 1 µM [1] | activity at 1 µM [2] | CC50 [3] | dHepaRG HBV % of replication at 1 μM compared to DMSO [1] | PHH HBV % of replication at 1 μM compared to DMSO [2] | CC50 (HepaRG cells)
CC(C)OC(=O)CC1COP(=O)(CO[C@H](C)Cn2cnc3c(NC(=O)c4ccccc4)ncnc32)OC1 (stereo partly drawn) [Example 21, (R)-isopropyl 2-(2-(((1-(6-benzamido-9H-purin-9-yl)propan-2-yl)oxy)methyl)-2-oxo-1,3,2-dioxaphosphinan-5-yl)acetate] | ≤ 30% | ≤ 30% | > 50 µM | – | – | –
CC(C)OC(=O)CC1COP(=O)(CO[C@H](C)Cn2cnc3c(N)ncnc32)OC1 (stereo partly drawn) [Example 3, (R)-isopropyl 2-(2-(((1-(6-amino-9H-purin-9-yl)propan-2-yl)oxy)methyl)-2-oxo-1,3,2-dioxaphosphinan-5-yl)acetate] | ≤ 30% | ≤ 30% | > 50 µM | – | – | –
CC(C)OC(=O)[C@H](C)N[P@](=O)(CO[C@H](C)Cn1cnc2c(N)ncnc21)Oc1ccccc1 [TAF] | – | – | – | ++++ (++++ ≤ 30%) | ++++ (++++ ≤ 30%) | < 10 µM
CC(C)OC(=O)CC1COP(=O)(CO[C@H](C)Cn2cnc3c(N(C(=O)c4ccccc4)C(=O)c4ccccc4)ncnc32)OC1 (stereo partly drawn) [Example 20, (R)-isopropyl 2-(2-(((1-(6-(N-benzoylbenzamido)-9H-purin-9-yl)propan-2-yl)oxy)methyl)-2-oxido-1,3,2-dioxaphosphinan-5-yl)acetate] | ≤ 30% | ≤ 30% | > 50 µM | – | – | –
C[C@H](Cn1cnc2c(N)ncnc21)OCP(=O)(O)O [TFV] | – | – | – | ++++ (++++ ≤ 30%) | ++++ (++++ ≤ 30%) | > 50 µM
